Experimental data as given in the supplement of paper PMC10477900.
Where a name gives a salt, the structure may show the parent alone.

Columns and labels:
[1] = tested on: HCT116; settings: 72 h
Protocol: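 HCT116 control and MTA1-KO (CRISPR) HCT116 cells were seeded in 384-well plates (800 cells/well), treated 16 h later with 237 metabolism-related anticancer drugs at five doses (10 uM, 2 uM, 400 nM, 80 nM, 16 nM) for 72 h, two replicates; viability by CCK8. Values are % inhibition of viability relative to untreated cells, plus fitted IC50.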

[2] = tested on: HCT116; test: viability inhibition vs untreated; higher = more cytotoxic; settings: 72 h

Row | Structure (SMILES) | IC50 ([1]; genotype: MTA1-KO) [µM] | IC50 ([1]; genotype: control) [µM] | viability inhibition ([2]; genotype: MTA1-KO, 16 nM) [%] | viability inhibition ([2]; genotype: MTA1-KO, 80 nM) [%] | viability inhibition ([2]; genotype: MTA1-KO, 400 nM) [%] | viability inhibition ([2]; genotype: MTA1-KO, 2000 nM) [%] | viability inhibition ([2]; genotype: MTA1-KO, 10000 nM) [%] | viability inhibition ([2]; genotype: control, 16 nM) [%] | viability inhibition ([2]; genotype: control, 80 nM) [%] | viability inhibition ([2]; genotype: control, 400 nM) [%] | viability inhibition ([2]; genotype: control, 2000 nM) [%] | viability inhibition ([2]; genotype: control, 10000 nM) [%]
1 | O=C(Nc1ccc(O)cc1)c1ccccc1O [Osalmid] | > 10 | > 10 | -19.6 | -14.3 | -16 | -6.29 | -7.75 | -15.5 | -18.3 | -10.9 | -10.7 | 5
2 | NS(=O)(=O)C#Cc1ccccc1 [Pifithrin-μ] | > 10 | > 10 | -6.33 | -6.69 | -11.6 | -13.4 | -5.71 | 12.9 | -14.1 | -16.5 | -18.1 | 20.2
3 | CN1CCN(C(=O)/C=C/c2ccc([N+](=O)[O-])o2)CC1 | > 10 | > 10 | -10.2 | -18.9 | -24 | -18.6 | 19.7 | 0.552 | -3.92 | -15.2 | -0.064 | 11
4 | NS(=O)(=O)c1cc2c(cc1Cl)NC(C(Cl)Cl)NS2(=O)=O (stereo not drawn) [Trichlormethiazide] | > 10 | > 10 | -29.5 | -30.5 | -28.4 | -24.3 | -25.6 | -19.9 | -23.8 | -25.7 | -14.7 | -2.52
5 | Cc1cc(-n2cccc2)c(S(C)(=O)=O)cc1C(=O)N=C(N)N [Eniporide] | 6.22 | > 10 | -5.44 | 3.61 | 2.87 | 16.5 | 60.9 | 1.06 | -2.91 | -4.47 | 3.58 | 8.84
6 | O=C(Nc1cccc(Nc2ncc(Br)c(NCCc3cnc[nH]3)n2)c1)N1CCCC1 [BX912] | 1.27 | 1.5 | -9.54 | 7.13 | 22.8 | 64.5 | 92.4 | -0.895 | -7.72 | 13.9 | 47.2 | 75.2
7 | CC(C)(Sc1cc(C(C)(C)C)c(O)c(C(C)(C)C)c1)Sc1cc(C(C)(C)C)c(O)c(C(C)(C)C)c1 [Probucol] | > 10 | > 10 | -5.9 | -11 | -1.83 | -5.06 | -0.265 | 6.44 | 11.6 | -2.62 | 16.6 | 9.78
8 | O=C(C[C@H]1NCCC[C@@H]1O)Cn1cnc2cc(Br)c(Cl)cc2c1=O [Halofuginone hydrobromide] | 0.374 | 0.371 | 2.99 | -4.56 | 73.6 | 106 | 103 | -19.5 | -8.31 | 72.1 | 111 | 101
9 | S=c1nc[nH]c2nc[nH]c12 [Mercaptopurine] | 6.61 | 2.74 | -23.8 | -26.8 | -16.8 | -13.3 | 63 | -20.2 | -15.2 | -11.9 | 24.6 | 90.5
10 | O=C(Nc1cccc(C(F)(F)F)c1)Nc1cc(S(=O)(=O)NC2CC2)ccc1-c1ccsc1 [AGI6780] | > 10 | > 10 | 4.84 | -6.61 | 9.84 | 15.6 | 49.9 | 13.6 | 18.2 | 3.86 | 16.8 | 22.5
11 | C#CCC(Cc1cnc2nc(N)nc(N)c2n1)c1ccc(C(=O)N[C@@H](CCC(=O)O)C(=O)O)cc1 (stereo partly drawn) [Pralatrexate] | 0.022 | < 0.016 | 37.5 | 71.4 | 71.7 | 75 | 77.3 | 52.4 | 77.9 | 78.8 | 80.6 | 79.1
12 | O=[N+]([O-])c1ccc(Nc2ccccc2-c2ccccc2)c2nonc12 | 8.18 | > 10 | 2.01 | -8.53 | -10.8 | -6.96 | 68.6 | 9.25 | 24.7 | 13.3 | 14.3 | 23.9
13 | COc1ccc(-c2ccc3c(N4CCOC[C@@H]4C)nc(N4CCOC[C@@H]4C)nc3n2)cc1CO [AZD8055] | 0.843 | > 10 | -21.9 | -16.3 | 15.5 | 41.3 | 67.5 | 0.243 | 13.1 | 36.1 | 46.1 | 37.6
14 | CC(O)=C(C#N)C(=O)Nc1ccc(C(F)(F)F)cc1 [Teriflunomide] | > 10 | > 10 | -20.1 | -19.6 | -22.5 | -31.4 | -28.2 | 12.8 | -1.7 | -4.62 | -5.29 | 10.1
15 | O=C(O)c1ccc2c(c1)nc(Nc1cccc(Cl)c1)c1ccncc12 [Silmitasertib] | > 10 | > 10 | -17.2 | -23.7 | -18.2 | -24.2 | -22 | 7.6 | -9.55 | -4.38 | -8.94 | -1.95
16 | CC(C)c1nc(N(C)S(C)(=O)=O)nc(-c2ccc(F)cc2)c1/C=C/[C@@H](O)C[C@@H](O)CC(=O)O [Rosuvastatin] | > 10 | > 10 | -4.22 | -8.46 | -10.3 | -11.2 | -10.9 | -1.14 | -8.14 | 4.9 | -10.3 | 31.2
17 | O=C1[C@H](CC[C@H](O)c2ccc(F)cc2)[C@@H](c2ccc(O)cc2)N1c1ccc(F)cc1 [Ezetimibe] | > 10 | > 10 | -4.11 | 3.58 | 10.6 | 5.65 | 0.125 | -7.56 | 2.58 | 22 | 25.8 | 31.9
18 | C[C@]12CC[C@H](O)C[C@H]1CC[C@@H]1[C@@H]2CC[C@]2(C)[C@@](O)(c3ccoc3)CC[C@]12O [Rostafuroxin] | > 10 | > 10 | 11.8 | 13.5 | 10 | 14.5 | 30.6 | -0.895 | 11.7 | 13.9 | 5.09 | 13
19 | CCN[C@H]1C[C@H](C)S(=O)(=O)c2sc(S(N)(=O)=O)cc21 [Dorzolamide hydrochloride] | > 10 | > 10 | -14.8 | -12.5 | -7.44 | -8.97 | -17.4 | -5.26 | -2.58 | -9.91 | -10 | -10.3
